From PubChem BioAssay AID330 (DTP/NCI, 2004)
Several values for one entry are separate records, joined by “and”; a condition that tells them apart may be missing. Equal entries are not always repeated. Toxic doses and inconclusive results are not listed. Numbered stars: 1 amine (or outer) side, 2 acyl side, 3 side chain; on linkers, the order of the positions; unused ones are H or OH. Bridge positions count the residues as written; N and C are the ends. Square brackets hold non-standard residues; d marks the D form. Peptide text beside a SMILES is read from it. I, II: the chains in the order shown. Actinocin(9to1) = Cc1c2oc3c(C)ccc(C(=O)[*:1])c3nc-2c(C(=O)[*:2])c(N)c1=O; NMeV = CN[CH](C(=O)O)C(C)C; Sar = CNCC(=O)O

Tested on: P388 leukemia ip, CD2F1 mice, survival T/C
Experiment: NCI In Vivo Anticancer Drug Screen. Data for tumor model P388 Leukemia (intraperitoneal) in CD2F1 (CDF1) mice
Conditions: endpoint: median survival time, higher = longer survival
How it was run: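 Mice carrying the transplanted tumor received test compound or vehicle. Survival was recorded in each group, and the value is the treated-group measurement divided by that of the vehicle-treated control group.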

[1] = dose: 50.0 mg/kg/injection, schedule: Q01DX009 (ip), vehicle: Klucel (hydroxypropylcellulose) (HPC)
[2] = dose: 100.0 mg/kg/injection, schedule: Q01DX009 (ip), vehicle: Klucel (hydroxypropylcellulose) (HPC)
[3] = dose: 200.0 mg/kg/injection, schedule: Q01DX009 (ip), vehicle: Klucel (hydroxypropylcellulose) (HPC)
[4] = dose: 50.0 mg/kg/injection, schedule: Q01DX005 (ip), vehicle: saline with Tween-80
[5] = dose: 100.0 mg/kg/injection, schedule: Q01DX005 (ip), vehicle: saline with Tween-80
[6] = dose: 200.0 mg/kg/injection, schedule: Q01DX005 (ip), vehicle: saline with Tween-80
[7] = dose: 100.0 mg/kg/injection, schedule: Q04DX002 (ip), vehicle: saline
[8] = dose: 200.0 mg/kg/injection, schedule: Q04DX002 (ip), vehicle: saline
[9] = dose: 400.0 mg/kg/injection, schedule: Q04DX002 (ip), vehicle: saline
[10] = dose: 50.0 mg/kg/injection, schedule: Q01DX009 (ip), vehicle: saline with Tween-80
[11] = dose: 100.0 mg/kg/injection, schedule: Q01DX009 (ip), vehicle: saline with Tween-80
[12] = dose: 200.0 mg/kg/injection, schedule: Q01DX009 (ip), vehicle: saline with Tween-80
[13] = dose: 25.0 mg/kg/injection, schedule: Q01DX009 (ip), vehicle: Klucel (hydroxypropylcellulose) (HPC)

Cc1ccc2c[n+]3ccccc3c(-c3ccccc3)c2c1
T/C (dose: 1.56 mg/kg/injection, schedule: Q04DX003 (ip), vehicle: Klucel (hydroxypropylcellulose) (HPC)): 100 % of control | T/C (dose: 3.12 mg/kg/injection, schedule: Q04DX003 (ip), vehicle: Klucel (hydroxypropylcellulose) (HPC)): 100 % of control

CC1CCCCN1C(=S)Nc1ccc(S(=O)(=O)N2CCCCC2)cc1 (centres undefined)
T/C [1]: 94 % of control | T/C [2]: 101 % of control | T/C [3]: 92 % of control

CCc1ncc(C(C)(O)c2ccccc2)n1Cc1ccccc1 (centres undefined)
T/C (dose: 60.0 mg/kg/injection, schedule: Q01DX005 (ip), vehicle: Klucel (hydroxypropylcellulose) (HPC)): 100 % of control | T/C (dose: 120.0 mg/kg/injection, schedule: Q01DX005 (ip), vehicle: Klucel (hydroxypropylcellulose) (HPC)): 102 % of control | T/C (dose: 240.0 mg/kg/injection, schedule: Q01DX005 (ip), vehicle: Klucel (hydroxypropylcellulose) (HPC)): 99 % of control

O=C1C(c2[nH]c3cccc(Cl)c3c2O)=Nc2cccc(Cl)c21
T/C [4]: 100 % of control | T/C [5]: 104 % of control | T/C [6]: 109 % of control

CC(=O)OCC1OC(OC(C)=O)C(NC(=O)C(C)NC(=O)OCc2ccccc2)C(OC(C)=O)C1OC(C)=O (centres undefined)
T/C (dose: 12.5 mg/kg/injection, schedule: Q01DX009 (ip), vehicle: other): 99 % of control | T/C (dose: 25.0 mg/kg/injection, schedule: Q01DX009 (ip), vehicle: other): 104 % of control | T/C (dose: 50.0 mg/kg/injection, schedule: Q01DX009 (ip), vehicle: other): 113 % of control | T/C (dose: 100.0 mg/kg/injection, schedule: Q01DX009 (ip), vehicle: other): 104 % of control | T/C (dose: 200.0 mg/kg/injection, schedule: Q01DX009 (ip), vehicle: other): 92 % of control

O=C1OCCSCCOCCSCCOC(=O)c2cncc1c2
T/C (dose: 100.0 mg/kg/injection, schedule: Q01DX001 (ip), vehicle: Klucel (hydroxypropylcellulose) (HPC)): 99 % of control | T/C (dose: 200.0 mg/kg/injection, schedule: Q01DX001 (ip), vehicle: Klucel (hydroxypropylcellulose) (HPC)): 113 % of control | T/C (dose: 400.0 mg/kg/injection, schedule: Q01DX001 (ip), vehicle: Klucel (hydroxypropylcellulose) (HPC)): 109 % of control

CC(=O)SC12CCCN1C(=O)C1CCCN1C2=O (centres undefined)
T/C [7]: 100 % of control | T/C [8]: 111 % of control | T/C [9]: 117 % of control

CCCCCCCCCCC(=O)C(=O)c1ccc(O)cc1O
T/C [1]: 111 % of control | T/C [2]: 112 % of control | T/C [3]: 113 % of control

c1cc2c(cc1CSCc1c(CSCc3ccc4c(c3)OCO4)c(CSCc3ccc4c(c3)OCO4)c(CSCc3ccc4c(c3)OCO4)c(CSCc3ccc4c(c3)OCO4)c1CSCc1ccc3c(c1)OCO3)OCO2
T/C [10]: 100 % of control | T/C [11]: 99 % of control | T/C [12]: 97 % of control

NC(Cc1ccc(O)cc1)C(=O)N/N=C/c1cccc2ccccc12 (centres undefined)
T/C [4]: 92 % of control | T/C [5]: 90 % of control | T/C [6]: 89 % of control

CCc1cc(/C=C2/OC(=O)c3ccccc32)cc(CC)c1O
T/C [7]: 101 % of control | T/C [8]: 100 % of control | T/C [9]: 100 % of control

CCn1c(=O)c2[nH]c(Cl)nc2n(C)c1=O
T/C (dose: 16.0 mg/kg/injection, schedule: Q01DX009 (ip), vehicle: Klucel (hydroxypropylcellulose) (HPC)): 111 % of control | T/C [13]: 102 % of control | T/C (dose: 32.0 mg/kg/injection, schedule: Q01DX009 (ip), vehicle: Klucel (hydroxypropylcellulose) (HPC)): 107 % of control | T/C [1]: 94 % of control | T/C (dose: 64.0 mg/kg/injection, schedule: Q01DX009 (ip), vehicle: Klucel (hydroxypropylcellulose) (HPC)): 102 % of control

O=C1C(Cl)=C(Nc2ccc3c(c2NC2=C(Cl)C(=O)c4ccccc4C2=O)C(=O)c2ccccc2C3=O)C(=O)c2ccccc21
T/C (dose: 50.0 mg/kg/injection, schedule: Q01DX005 (ip), vehicle: Klucel (hydroxypropylcellulose) (HPC)): 97 % of control | T/C (dose: 100.0 mg/kg/injection, schedule: Q01DX005 (ip), vehicle: Klucel (hydroxypropylcellulose) (HPC)): 99 % of control

CSCSCC(CO)NC(=O)/C=C/c1c[nH]c(=O)[nH]c1=O (centres undefined)
T/C (dose: 1.0 mg/kg/injection, schedule: Q01DX009 (ip), vehicle: other): 92 % of control | T/C (dose: 2.0 mg/kg/injection, schedule: Q01DX009 (ip), vehicle: other): 97 % of control | T/C (dose: 4.0 mg/kg/injection, schedule: Q01DX009 (ip), vehicle: other): 98 % of control | T/C (dose: 8.0 mg/kg/injection, schedule: Q01DX009 (ip), vehicle: other): 93 % of control | T/C (dose: 16.0 mg/kg/injection, schedule: Q01DX009 (ip), vehicle: other): 102 % of control | T/C (dose: 32.0 mg/kg/injection, schedule: Q01DX009 (ip), vehicle: other): 107 % of control

CCC1CN1P(=O)(OCCC#N)N1CC1CC (centres undefined)
T/C (dose: 12.5 mg/kg/injection, schedule: Q01DX009 (ip), vehicle: saline): 100 % of control | T/C (dose: 25.0 mg/kg/injection, schedule: Q01DX009 (ip), vehicle: saline): 104 % of control | T/C (dose: 50.0 mg/kg/injection, schedule: Q01DX009 (ip), vehicle: saline): 109 % of control | T/C (dose: 100.0 mg/kg/injection, schedule: Q04DX003 (ip), vehicle: saline with Tween-80): 104 % of control | T/C (dose: 200.0 mg/kg/injection, schedule: Q04DX003 (ip), vehicle: saline with Tween-80): 100 % of control | T/C (dose: 400.0 mg/kg/injection, schedule: Q04DX003 (ip), vehicle: saline with Tween-80): 104 % of control

CCOC(=O)C(Cl)(SC(Cl)(S(=O)(=O)c1ccccc1)S(=O)(=O)c1ccccc1)C(=O)OCC
T/C [1]: 102 % of control | T/C [2]: 99 % of control | T/C [3]: 97 % of control

O=C1c2ccccc2CCCC12OC2c1cccnc1 (centres undefined)
T/C [13]: 100 % of control | T/C [1]: 100 % of control | T/C [2]: 104 % of control

Cc1onc(-c2ccccc2Cl)c1C1=N/C(=C/c2cc(Cl)cc(Cl)c2O)C(=O)O1
T/C [1]: 114 % of control | T/C [2]: 104 % of control | T/C [3]: 96 % of control

COC(=O)/C=C1\Sc2cc(F)ccc2NC1=O
T/C [10]: 92 % of control | T/C [11]: 98 % of control | T/C [12]: 100 % of control

NS(=O)(=O)c1ccc(NCc2cnc3ccccc3n2)cc1
T/C (dose: 5.0 mg/kg/injection, schedule: Q01DX009 (ip), vehicle: saline): 87 % of control | T/C (dose: 10.0 mg/kg/injection, schedule: Q01DX009 (ip), vehicle: saline): 94 % of control | T/C (dose: 20.0 mg/kg/injection, schedule: Q01DX009 (ip), vehicle: saline): 94 % of control

[Se]c1nccn2cnnc12
T/C (dose: 1.56 mg/kg/injection, schedule: Q01DX001 (ip), vehicle: saline): 99 % of control and 101 % of control | T/C (dose: 3.12 mg/kg/injection, schedule: Q01DX001 (ip), vehicle: saline): 100 % of control and 96 % of control | T/C (dose: 6.25 mg/kg/injection, schedule: Q01DX001 (ip), vehicle: saline): 99 % of control and 105 % of control | T/C (dose: 12.5 mg/kg/injection, schedule: Q01DX001 (ip), vehicle: saline): 103 % of control and 109 % of control

Cc1cccc2c(C(=O)O)cc(-c3ccc(Cl)cc3)nc12
T/C (dose: 12.5 mg/kg/injection, schedule: Q01DX009 (ip), vehicle: saline with Tween-80): 104 % of control | T/C (dose: 25.0 mg/kg/injection, schedule: Q01DX009 (ip), vehicle: saline with Tween-80): 99 % of control | T/C [10]: 108 % of control

Cc1c2oc3c(C)ccc(C(=O)NC4C(=O)NC(C(C)C)C(=O)N(C)CC(=O)N(C)CC(=O)N(C)C(C(C)C)C(=O)OC4C)c3nc-2c(C(=O)NC2C(=O)NC(C(C)C)C(=O)N(C)CC(=O)N(C)CC(=O)N(C)C(C(C)C)C(=O)OC2C)c(N)c1=O (centres undefined) (I: TV[Sar][Sar][NMeV] / II: TV[Sar][Sar][NMeV]; ester I:1-I:C, II:1-II:C; linker I:N-II:N via Actinocin(9to1); configuration not given here)
T/C (dose: 0.1 mg/kg/injection, schedule: Q01DX009 (ip), vehicle: water): 164 % of control | T/C (dose: 0.18 mg/kg/injection, schedule: Q01DX009 (ip), vehicle: other): 166 % of control | T/C (dose: 0.2 mg/kg/injection, schedule: Q01DX009 (ip), vehicle: water): 166 % of control | T/C (dose: 0.27 mg/kg/injection, schedule: Q01DX009 (ip), vehicle: other): 202 % of control | T/C (dose: 0.4 mg/kg/injection, schedule: Q01DX009 (ip), vehicle: other): 200 % of control | T/C (dose: 0.4 mg/kg/injection, schedule: Q01DX009 (ip), vehicle: water): 205 % of control | T/C (dose: 0.6 mg/kg/injection, schedule: Q01DX009 (ip), vehicle: other): 270 % of control | T/C (dose: 0.8 mg/kg/injection, schedule: Q01DX009 (ip), vehicle: water): 156 % of control | T/C (dose: 1.6 mg/kg/injection, schedule: Q01DX009 (ip), vehicle: water): 88 % of control
